Patent publication US20140134139A1, “CD34+ CELLS AND METHODS OF USE” (NORTHWESTERN UNIVERSITY, priority 2012, published 2014)

Tests used:
[1] = test system: human CD34+ cells; assay: Toxicity to human CD34+ cells; type: cell-based; settings: similar drug doses as for mouse EPCs and even 2-fold reduced levels
Procedure: In an attempt to increase their plasticity, 2.0×10^5 sorted EPCs were seeded on fibronectin coated plates then treated for 48 hours with individual or combinations of epigenetic modifying agents; 500 nM 5′-Azacytidine (5′ Aza; DNA methyltransferase inhibitor), 1 mM valproic acid (VPA; histone deacetylase inhibitor), 1 mM BIX-01294 (histone methyltransferase inhibitor). Drug dosages were verified as non-toxic by cell viability analysis (data not shown). […] All mRNA expression was normalized to 18S RNA then presented as a fold difference compared to untreated EPCs. […]
The epigenetic reprogramming by these small molecules was evaluated in human CD34+ cells to determine whether their reprogramming potential is limited to mouse EPCs or whether it can also be translated to human EPCs (bone marrow mobilized CD34+ cells), currently used in clinical trials (Losordo D W et al., Circ. Res. 109:428-436 (2011)). CD34+ cells, obtained from healthy donors and provided by Baxter healthcare, were treated or not with VPA (2.5 mM) and 5′ Aza (500 nM) and mRNA expression of pluripotency and cardiomyocyte-specific transcripts was determined. […] In order to determine enhanced functional capacity of reprogrammed CD34+ cells in the repair of post-infarct myocardium, a previously determined sub-therapeutic dose of 2.5×10^4 cells was used for post-AMI transplantation in immune-e-deficient mouse AMI model. […]

[2] = test system: Lineage-Sca-1+CD31+ EPCs; assay: Real-time PCR gene expression in drug-treated sorted mouse EPCs; type: cell-based
Procedure: Relative mRNA expression of target genes was normalized to the endogenous 18S control gene.
Lineage-Sca-1+CD31+ EPCs were cultured on 5 μg/mL human fibronectin coated plates in DMEM supplemented with 10% FBS and penicillin/streptomycin at 37° C. with 5% CO2. Human CD34+ cells were cultured in X-VIVO (Lonza) media supplemented with 0.5% human serum albumin, 50 ng/mL Flt3 ligand, 20 ng/mL stem cell factor, 50 ng/mL VEGF, and 10 ng/mL thrombopoietin. Either cell type was treated with VPA (2.5 mM) for 24 hours then 500 nM 5′ Aza was added to the culture media and cells remained in culture for an additional 24 hours (48 hours total). Different ranges of doses were tested with above doses being determined as the optimal doses not only for reprogramming but also for displaying minimal cellular toxicity. Further, a staggered treatment protocol, that is, contacting an EPC culture with a first epigenetic programming agent (for example, VPA) for a first period of time (for example, 24 hr), followed by contacting the EPC culture with a second epigenetic programming agent (for example, 5′-Aza) for a second period of time (for example, 24 hr) was determined to be a highly preferred protocol for reprogramming. Mouse EPCs were also cultured with 1 μM BIX-01294 for 48 hours in the same culture conditions. […]

[3] = test system: murine endothelial cells (SVEC); assay: Western blot of histone acetylation and methylation in SVEC cells; type: cell-based, mouse; settings: 1 μM BIX-01294, compared to untreated control cells
Procedure: Cell lysate from 1.5×10^7 SVEC cells was prepared using whole cell lysate buffer (50 mM Tris-HCl, 0.5% Igepal (NP-40), 150 nM NaCl). […] Equal protein loading in each lane was verified using antibodies against β-actin and changes in modified histone levels were quantified by first normalization to total H3 or H4 protein.
Therefore, murine endothelial cells (SVEC) were treated with either 1 μM BIX-01294 or staggered addition of 1 mM VPA then 500 nM 5′-Azacytidine for 48 h and histone acetylation and methylation were assessed by western blot.

[4] = test system: Lineage-Sca-1+CD31+ EPCs; assay: Cell viability analysis of drug-treated mouse EPCs; type: cell-based; settings: 500 nM 5′ Aza, 1 mM VPA, 1 mM BIX-01294; 48 hours; data not shown
Procedure: In an attempt to increase their plasticity, 2.0×10^5 sorted EPCs were seeded on fibronectin coated plates then treated for 48 hours with individual or combinations of epigenetic modifying agents; 500 nM 5′-Azacytidine (5′ Aza; DNA methyltransferase inhibitor), 1 mM valproic acid (VPA; histone deacetylase inhibitor), […] (histone methyltransferase inhibitor). Drug dosages were verified as non-toxic by cell viability analysis (data not shown). […] All mRNA expression was normalized to 18S RNA then presented as a fold difference compared to untreated EPCs. […] Since the treated cells express cardiomyocyte genes at basal level they may be more inclined to differentiate into mature CMCs under conditions conducive for CMC differentiation. Similar changes in gene expression were found in human CD34+ cells with the regimen of 2.5 mM VPA followed by 500 nM 5′ Aza (FIG. 2A). BIX-01294 treatment, even at reduced doses, was toxic to human CD34+ cells and was therefore not used in human cell studies.

[5] = test system: Nkx2.5 promoter; assay: Pyrosequencing methylation analysis of the Nkx2.5 promoter in SVECs; type: cell-based, mouse; settings: treated vs control SVEC cells
[6] = test system: SVEC cells; assay: ChIP assay of acetylated H3K9 at Oct4 and cardiomyocyte gene promoters in SVEC cells; type: cell-based, mouse; settings: p<0.05

| SMILES | toxicity to human CD34+ cells [1] | induction of cardiomyocyte-specific transcripts ([2]; real-time PCR immediately after treatment, without cardiomyocyte differentiation conditions) | Oct4 expression, fold difference compared to untreated EPCs ([2]; real-time PCR, normalized to 18S RNA, 48 hours with 1 mM BIX-01294, or 24 hours 1 mM VPA then 24 hours 500 nM 5′ Aza) [fold] | reduction of H3K9 di-methylation [3] [%] | toxicity of drug dosages by cell viability analysis [4] | CpG methylation patterns of Nkx2.5 [5] | acetylated H3K9 bound to cardiac-specific gene promoters (Actn2, Ryr2, TnnT2) ([6]; compared to non-treated cells) | acetylated H3K9 bound to the core (CP) and regulatory promoter (RP) regions of Oct4 ([6]; compared to untreated controls) |
| --- | --- | --- | --- | --- | --- | --- | --- | --- |
| COc1cc2nc(N3CCCN(C)CC3)nc(NC3CCN(Cc4ccccc4)CC3)c2cc1OC [BIX-01294] | toxic | de novo induction of cardiomyocyte-specific transcripts | 9.5±2.0 | 64.3±11 | non-toxic | no significant difference | more heavily bound by acetylated H3K9 | significant increase |
| CCCC(CCC)C(=O)O [VPA, valproic acid] |  |  |  |  | non-toxic |  |  |  |
